Values joined by “and” are separate entries in the source; they are usually repeats but may differ in a detail not shown here. Identical values can stand only once. Blank lines part the entries; values can stand above or below the compound they belong to.
Assays:
CYP2B6 mRNA [1] = test: CYP2B6 mRNA induction in 5F HepaRG control cells (real-time PCR); format: in vitro ADME, human; details: 5F cells, 48 h, value of each individual experiment (two per cell)
CYP2B6 mRNA [2] = test: CYP2B6 mRNA induction in HepaRG wild-type cells (real-time PCR); format: in vitro ADME, human; details: for E max, induction of CYP2B6 mRNA, HepaRG: E max ± SD; for EC50: human, EC50 ± SD
CYP2B6 mRNA [3] = test: CYP2B6 mRNA induction in PXR-KO HepaRG cells (real-time PCR); format: in vitro ADME, human
CYP2B6 mRNA [4] = test: in vitro; details: human, cryopreserved primary human hepatocytes
CYP2B6 mRNA [5] = test: CYP2B6 mRNA induction in cryopreserved primary human hepatocytes (real-time PCR); details: 48 h
CYP3A4 mRNA [6] = test system: CYP3A4 mRNA
CYP3A4 mRNA [7] = test: CYP3A4 mRNA induction in HepaRG wild-type cells (real-time PCR)
CYP3A4 mRNA [8] = test: CYP3A4 mRNA induction in 5F HepaRG control cells (real-time PCR); details: 5F cells, 48 h, value of each individual experiment (two per cell)

- E max, induction of CYP2B6 mRNA, 5F (CYP2B6 mRNA [1]): 18.9 and 12.9
- EC50 (CYP2B6 mRNA [1]): 1.7 µM and 0.7 µM
- E max, induction of CYP2B6 mRNA, HepaRG (CYP2B6 mRNA [2]): 5.2 ± 2.9
- EC50 (CYP2B6 mRNA [2]): 0.3 ± 0.2 µM
- CYP2B6 induction response in PXR-KO cells (in words) (CYP2B6 mRNA [3]; PXR-KO HepaRG cells, compared with 5F cells): No response
- EC50 at 48 h (CYP2B6 mRNA [4]; donor D1 (Hu1455)): 0.1 µM
- EC50 at 48 h (CYP2B6 mRNA [4]; donor D2 (Hu1601)): 5.2 µM
- EC50 at 48 h (CYP2B6 mRNA [4]; donor D3 (Hu8132)): 5.5 µM
- E max, induction of CYP2B6 mRNA, primary human hepatocyte donor D1 (CYP2B6 mRNA [5]; donor D1 (Hu1455), NE = no effect observed, relative gene expression fold change <2): 3.9
- E max, induction of CYP2B6 mRNA, primary human hepatocyte donor D2 (CYP2B6 mRNA [5]; donor D2 (Hu1601), NE = no effect observed, relative gene expression fold change <2): 4.3
- E max, induction of CYP2B6 mRNA, primary human hepatocyte donor D3 (CYP2B6 mRNA [5]; donor D3 (Hu8132)): 16.3
SMILES: CO[C@H]1/C=C/O[C@@]2(C)Oc3c(C)c(O)c4c(O)c(c(/C=N/N5CCN(C)CC5)c(O)c4c3C2=O)NC(=O)/C(C)=C\C=C\[C@H](C)[C@H](O)[C@@H](C)[C@@H](O)[C@@H](C)[C@H](OC(C)=O)[C@@H]1C [Rifampicin, rifampicin]

SMILES: O=C1NC(=O)C(c2ccccc2)(c2ccccc2)N1 [Phenytoin, phenytoin]
- E max, induction of CYP2B6 mRNA, 5F (CYP2B6 mRNA [1]): 7.3 and 10.6
- EC50 (CYP2B6 mRNA [1]): 7.8 µM
- EC50 at 48 h (CYP2B6 mRNA [1]; human, 5F HepaRG control cells, read-out: EC50, induction of CYP2B6 mRNA, 5F): 5.1 µM
- E max, induction of CYP2B6 mRNA, HepaRG (CYP2B6 mRNA [2]): 14.2 ± 3.7
- EC50 (CYP2B6 mRNA [2]): 2.7 ± 1.7 µM
- EC50 for CYP2B6 in PXR-KO cells in comparison to other cell types (in words) (CYP2B6 mRNA [3]; PXR-KO vs 5F cells / other cell types): increased
- E max for CYP2B6 in PXR-KO cells in comparison to other cell types (in words) (CYP2B6 mRNA [3]; PXR-KO vs 5F, HepaRG WT cells and PHHs): lower
- CYP3A4 induction response in PXR-KO cells (in words) (CYP3A4 mRNA [6]): much reduced
- E max for CYP3A4 in PXR-KO cells in comparison to other cell types (in words) (CYP3A4 mRNA [6]): lower
- EC50 for CYP3A4 in PXR-KO cells in comparison to other cell types (in words) (CYP3A4 mRNA [6]): increased
- E max, induction of CYP3A4 mRNA, HepaRG (CYP3A4 mRNA [7]; E max ± SD): 89.6 ± 8.1
- EC50 (CYP3A4 mRNA [7]; human): 42.6 ± 6.6 µM
- E max, induction of CYP3A4 mRNA, 5F (CYP3A4 mRNA [8]): 16.0 and 20.8
- EC50 at 48 h (CYP3A4 mRNA [8]; human, 5F HepaRG control cells, EC50, induction of CYP3A4 mRNA, 5F): 18.1 µM
- EC50 (CYP3A4 mRNA [8]; read-out: EC50, induction of CYP3A4 mRNA, 5F): 19.9 µM
